From patent publication US20060247260A1, “Bis (hetero) aryl carboxamide derivatives for use as PG12 antagonists” (BAYER HEALTHCARE AG, priority 2003, published 2006)

How the values were obtained:
PGI2 receptor = target: T1, PGI2 receptor (Homo sapiens, UniProt P43119); experiment: PGI2 receptor binding/cAMP in HEL cells (in vitro activity grade); conditions: compounds of purity about 40 to 90%
T1 construct: host or cells: HEL 92.1.7 human erythroleukemia cells (whole cells)
Protocol: [Measurement of the [^3H]-Iloprost Binding to HEL Cells] (Assay 1) A human erythloleukemia cell line, HEL 92.1.7, was purchased from American Type Culture Correction and maintained in RPMI-1640 medium (Gibco BRL) supplemented with 10% fetal calf serum (FCS), 2 mM glutamine, 4.5 g/L glucose, 10 mM Hepes, 1 mM sodium pyruvate, 100 U/ml penicillin, and 100 μg/ml streptomycin in a humidified 5% CO2 atmosphere at 37° C. Cells were collected with centrifugation and washed with binding assay buffer (BAB: 50 mM Tris-HCl, 5 mM MgCl2 (pH 7.5)). Cells were suspended at the density of 6.25×10^6 cells/ml in BAB, and one million cells in 160 μl aliquot of cell suspension were put in a well of 96 well plate (Falcon). Then, 20 μl of compound solution, 100 μM of iloprost (for non-specific binding), or buffer alone (total binding), diluted with 1% DMSO in BAB was added. Finally, another 20 μl containing [^3H]-iloprost (0.02 μCi, 0.5-1 pmol) in BAB was added and incubated at room temperature for 30 min with a gentle shaking. Cell suspension was then transferred to a well of MultiScreen plate with GF/C glass filters (Millipore) to harvest cells. Cells were washed twice with 200 μl of ice-cold BAB and the plate was kept at 55° C. for 30 min to dry filters. The filter in the well was punched out to a counting tube and 2 ml of Ultima Gold XR Packard) was added. [^3H]-radio activity in the filter was measured by a liquid scintillation counter (Beckman, USA). [Iloprost-Induced cAMP Production Assay in HEL Cells] (Assay 2) HEL cells were collected with centrifugation and washed with cAMP assay buffer (CAB: Hank's balanced salt solution, 17 mM Hepes, 0.1% bovine serum albumin, 1 mM IBMX, 0.4% DMSO, and 1 mM L-ascorbic acid sodium salt (pH 7.4)). Cells were suspended at the density of 2.5×10^5 cells/ml in CAB, and twenty thousand cells in 80 μl aliquot of cell suspension were put in a well of 96 well plate (Falcon). Then, 10 μl of compound solution diluted with 1% DMSO in CAB or buffer alone was added. The plate was incubated at 37° C. for 30 min. Then, another 10 μl containing 100 nM iloprost in CAB or buffer alone was added and further incubated at 37° C. for 30 min. cAMP content in the well was measured by, a cAMP ELISA kit (Applied Biosystems, USA). The data corresponds to the compounds as yielded by solid phase synthesis and thus to levels of purity of about 40 to 90%. For practical reasons, the compounds are grouped in three classes of activity as follows: In vitro activity grade=A≦0.1 μM<B≦1 μM<C

T1 sequence (P43119 whole entry): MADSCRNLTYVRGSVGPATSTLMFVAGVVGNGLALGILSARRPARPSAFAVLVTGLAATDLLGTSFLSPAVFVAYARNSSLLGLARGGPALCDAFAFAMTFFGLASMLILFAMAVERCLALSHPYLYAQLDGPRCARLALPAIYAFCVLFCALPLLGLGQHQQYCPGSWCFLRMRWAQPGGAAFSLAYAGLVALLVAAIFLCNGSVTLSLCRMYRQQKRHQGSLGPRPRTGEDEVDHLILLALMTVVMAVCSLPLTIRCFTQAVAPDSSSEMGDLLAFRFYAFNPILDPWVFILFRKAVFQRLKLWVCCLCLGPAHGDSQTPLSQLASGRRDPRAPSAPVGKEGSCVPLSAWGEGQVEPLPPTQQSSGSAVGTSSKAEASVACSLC

For O=C(NC(Cc1ccccc1)C(=O)O)c1ccc(-c2ccc(OCc3ccccc3)c(F)c2)cc1 (centres unmarked) [Example 7-1, 2-[(4′-Benzyloxy-3′-fluorobiphenyl-4-carbonyl)amino]-3-phenylpropionic acid], the “In vitro activity grade” value (PGI2 receptor) was “A (A≦0.1 μM)” and the melting point was 215 °C.
